Test results as given in PMC6302903, “Protein and Chemical Determinants of BL-1249 Action and Selectivity for K2P Channels” (ACS Chemical Neuroscience, 2018).

How the values were obtained:
Assay type in all cases: cell-based
TRAAK/EK-1 M4-C = target: T1, TRAAK/EK-1 M4-C (Mus musculus, UniProt O88454+P97438, F242V/L235V/N256D/S249A/T252S/T253M); assay: TEVC of chimera TRAAK/EK-1 M4-C; settings: Xenopus oocytes
T1 construct: and Tyr234 K2P4.1(TRAAK); expressed in transfected cells; host or cells: Xenopus laevis oocytes, mRNA injected; chimera built by Gibson assembly
T1 sequence (O88454+P97438 fused with the stated changes): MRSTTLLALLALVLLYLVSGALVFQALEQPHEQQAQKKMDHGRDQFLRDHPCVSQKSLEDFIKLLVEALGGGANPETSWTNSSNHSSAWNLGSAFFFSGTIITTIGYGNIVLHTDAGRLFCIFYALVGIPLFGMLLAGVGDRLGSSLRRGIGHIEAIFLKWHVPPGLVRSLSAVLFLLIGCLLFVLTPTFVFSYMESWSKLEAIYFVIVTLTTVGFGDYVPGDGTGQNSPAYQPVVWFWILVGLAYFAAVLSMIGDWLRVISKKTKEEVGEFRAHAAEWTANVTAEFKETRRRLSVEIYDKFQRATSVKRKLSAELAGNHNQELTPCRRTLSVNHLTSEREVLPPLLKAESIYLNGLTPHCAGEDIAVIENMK

TRAAK/EK-1 M3-C = target: T2, TRAAK/EK-1 M3-C (Mus musculus, UniProt O88454+P97438, A173T/A231F/D223G/E202D/F190V/F242V/G166T/G224S/G226I/H162N/I179F/I208V/K200A/L167K/L171I/L175I/L177I/L182V/L186A/L235V/M195I/N228Y/N256D/P164S/P165Q/P221A/P230D/Q227E/Q233K/S170I/S193K/S197G/S229L/S249A/T187L/T189A/T225D/T252S/T253M/V168I/V174I/V191I/V209I/V214I/Y194H); assay: TEVC of chimera TRAAK/EK-1 M3-C; settings: Xenopus oocytes
T2 construct: Trp161 (TRAAK/EK-1 M3-C); expressed in transfected cells; host or cells: Xenopus laevis oocytes, mRNA injected; chimera built by Gibson assembly
T2 sequence (O88454+P97438 fused with the stated changes): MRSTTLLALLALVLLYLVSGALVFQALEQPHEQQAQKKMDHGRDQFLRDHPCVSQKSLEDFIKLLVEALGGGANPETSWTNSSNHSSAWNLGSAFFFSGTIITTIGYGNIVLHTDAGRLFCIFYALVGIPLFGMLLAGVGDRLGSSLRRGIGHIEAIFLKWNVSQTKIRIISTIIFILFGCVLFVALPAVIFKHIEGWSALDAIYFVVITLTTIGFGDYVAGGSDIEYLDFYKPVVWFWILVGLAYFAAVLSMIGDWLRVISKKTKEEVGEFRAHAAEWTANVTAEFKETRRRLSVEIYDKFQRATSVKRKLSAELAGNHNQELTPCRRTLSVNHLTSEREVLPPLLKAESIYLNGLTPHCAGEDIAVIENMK

K2P2.1(TREK-1) = target: T3, K2P2.1(TREK-1) (Mus musculus, UniProt P97438); assay: TEVC of K2P2.1(TREK-1) in Xenopus oocytes; design: expressed in transfected cells; host or cells: Xenopus laevis oocytes injected with mRNA made from pGEMHE/pMO
T3 sequence (P97438 1-411 isoform P97438-2): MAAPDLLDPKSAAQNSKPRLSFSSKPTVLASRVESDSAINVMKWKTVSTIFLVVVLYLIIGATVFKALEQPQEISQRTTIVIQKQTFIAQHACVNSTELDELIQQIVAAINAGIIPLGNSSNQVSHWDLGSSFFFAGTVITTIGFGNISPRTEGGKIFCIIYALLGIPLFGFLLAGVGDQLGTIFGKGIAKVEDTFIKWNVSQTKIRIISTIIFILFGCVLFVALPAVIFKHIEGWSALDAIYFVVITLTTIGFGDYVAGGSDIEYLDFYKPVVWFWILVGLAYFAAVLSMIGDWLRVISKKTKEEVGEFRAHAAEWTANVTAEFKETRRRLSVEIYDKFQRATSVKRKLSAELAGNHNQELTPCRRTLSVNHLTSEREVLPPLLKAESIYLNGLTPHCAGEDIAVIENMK
Text: Constructs for murine K2P channels, including K2P2.1(TREK-1) (Gene ID 16526), K2P10.1(TREK-2) (Gene ID 72258), K2P4.1(TRAAK) (Gene ID 16528), K2P5.1(TASK-2) (Gene ID 16529), K2P3.1(TASK-1) (Gene ID 16527), K2P9.1(TASK-3) (Gene ID 223604), and K2P18.1(TRESK) (Gene ID 332396) in pGEMHE/pMO, were used for Xenopus oocyte experiments as previously described.[10],[26] Murine K2P2.1(TREK-1) (Gene ID 16526) was expressed in HEK-293 cells using a pIRES-EGFP construct as previously described.[26] Murine K2P13.1(THIK-1) (Gene ID 217826) and K2P1.1(TWIK-1) (Gene ID 16525) were cloned into pGEMHE/pMO for use in Xenopus oocytes. Chimeras were designed using EMBOSS Needle pairwise sequence alignment tool[58] to match homologous helices in K2P2.1(TREK-1) and K2P4.1(TRAAK) and were assembled using the Gibson assembly method.[59] Chimera boundaries are Thr152 (TREK-1/AAK M2-C), Trp199 (TREK-1/AAK M3-C), Y272 (TREK-1/AAK M4-C), Thr114 (TRAAK/EK-1 M2-C), Trp161 (TRAAK/EK-1 M3-C), and Tyr234 K2P4.1(TRAAK). All sequences were verified using DNA sequencing.
Xenopus laevis oocytes were harvested in accordance with UCSF IACUC protocol AN129690 and digested in calcium-free ND-96 (96 mM NaCl, 2 mM KCl, 3.8 mM MgCl2) immediately following harvest, as previously described.[6],[10] Digested oocytes were maintained in standard ND96 (96 mM NaCl, 2 mM KCl, 1.8 mM CaCl2, 2 mM MgCl2) with antibiotics (100 units mL^–1 penicillin, 100 μg mL^–1 streptomycin, 50 μg mL^–1 gentimycin). Defolliculated stage V–VI oocytes were injected with 0.2–6.0 ng of mRNA in 50 nL, and currents were recorded 24–48 h after injection. mRNA was synthesized from plasmid DNA using mMessage mMachine Kit (T7 promoter, Ambion, Life Technologies) and purified using RNEasy Kit (Qiagen). Injected oocytes were impaled with two standard microelectrodes (0.2–1.0 MΩ) filled with 3 M KCl and subjected to constant perfusion of standard ND96 during recording. Currents were amplified using the GeneClamp 500B (MDS Analytical Technologies) amplifier controlled by the pClamp software (Molecular Devices). Data were digitized at 1 kHz using Digidata 1332A (MDS Analytical Technologies). For all experiments with small molecules, basal currents were evoked using 1 s long ramps from −150 to +50 mV under constant perfusion of ND96. Once stabilized basal currents were recorded, compounds were perfused at various concentrations in standard ND96 and currents were allowed to increase to stabilization before recording final current. Fold activation upon compound application is expressed as I/I0 (0 mV), derived from the current at 0 mV in the presence of compound divided by the basal current at 0 mV in standard ND96 without compound. Data were analyzed and plotted using Graphpad Prism Version 5 (GraphPad Software, San Diego California USA, www.graphpad.com). […] In the case of BL-1249-acid EC50 estimation, upper bound of I/I0 was set to 20 to account for the strong stimulation of BL-1249-acid.

SMILES	EC50 (TRAAK/EK-1 M4-C)	EC50 (TRAAK/EK-1 M3-C)	K2P2.1(TREK-1) current response (K2P2.1(TREK-1); extracellular application of 10 μM)	EC50 (K2P2.1(TREK-1); extracellular application, fold activation I/I0 at 0 mV)	effect on K2P2.1(TREK-1) current (in words) (K2P2.1(TREK-1); dose-response)
c1ccc(-c2nnn[nH]2)c(Nc2cccc3c2CCCC3)c1 [BL-1249, (5,6,7,8-tetrahydro-naphthalen-1-yl)-[2-(1H-tetrazol-5-yl)-phenyl]-amine]	45 ± 2 µM	18 ± 2 µM	clear activation responses	5.5 ± 1.2 µM	–
CS(=O)(=O)Nc1ccc(C(=O)NCc2ccc(Cl)cc2Cl)cc1 [ML335]	> 100 µM	13 ± 2 µM	–	–	robustly responded
